Measurements taken from US8551727B2, “Gold nanoparticle based protease imaging probes and use thereof” (Korea Institute of Science and Technology, priority 2007, dated 2013).

Assays:
[1] = Particle analysis of MMP selective gold nanosensor (TEM and light scattering); assay type: physicochemical
Description: For the gold nanoparticle derivatives prepared in Example 1-3, the size of nanoparticle was measured using transmission electron microcopy (TEM) and light scattering (Brookhaven Instrument).

[2] = biological target: T1, MMP-2 (Homo sapiens, UniProt P08253); test: Fluorescence exhibition due to enzyme degradation of gold nanosensor by activated MMP-2 (96-well, Kodak Image Station); assay type: biochemical; settings: 37° C., 2 hours
T1 sequence (P08253 110-660): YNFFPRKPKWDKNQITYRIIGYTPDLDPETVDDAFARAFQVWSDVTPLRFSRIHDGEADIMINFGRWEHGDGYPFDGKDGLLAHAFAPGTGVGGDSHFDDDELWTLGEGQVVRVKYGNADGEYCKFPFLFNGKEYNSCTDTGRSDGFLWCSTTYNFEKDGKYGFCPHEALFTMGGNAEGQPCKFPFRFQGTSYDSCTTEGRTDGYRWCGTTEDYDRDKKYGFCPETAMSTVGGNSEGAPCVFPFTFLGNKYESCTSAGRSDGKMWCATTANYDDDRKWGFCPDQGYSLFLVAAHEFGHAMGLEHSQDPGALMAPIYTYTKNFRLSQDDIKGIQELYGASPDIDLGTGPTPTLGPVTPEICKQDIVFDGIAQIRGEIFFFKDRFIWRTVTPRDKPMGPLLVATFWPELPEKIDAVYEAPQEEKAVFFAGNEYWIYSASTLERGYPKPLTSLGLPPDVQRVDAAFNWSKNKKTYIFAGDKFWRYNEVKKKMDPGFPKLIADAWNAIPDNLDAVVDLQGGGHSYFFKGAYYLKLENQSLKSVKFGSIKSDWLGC
Description: (§1) A gold nanosensor was reacted respectively with MMP-2 and MMP-13 each activated in the 96-well, a scramble peptide (i.e., a peptide having the same amino acid contained structure but having different sequence so as not to act as a substrate with respect to a specific enzyme) and MMP-2/MMP-2 inhibitor at temperature of 37° C. for 2 hours, and thereafter a fluorescence exhibition due to the enzyme degradation was observed.
(§2) First, in order to activate the MMP-2 and MMP-13, the MMPs were added into a TCNB mixture (containing 0.1M of tris, 5 mM of calcium chloride, 200 mM of NaCl and 0.1% of Brij) having 2.5 mmol/L of p-aminophenyl mercuric acid added thereto, so as to be reacted at temperature of 37° C. for 1 hour. The activated MMP-2 and MMP-13 were reacted with the gold nanosensor in 200 μL of mixture in each well at temperature of 37° C. for 2 hours, and thereafter the degree of the fluorescence was observed using Kodak Image Station 4000MM Digital Imaging System built in a […] (Charge Coupled Device) camera.
The MMP gold nanosensor was used to quantitatively analyze the concentration of MMP-2 protease. In more detail, according to the same experimental way to that in Example 2-2, each of activated MMP-2s having concentrations of 0, 1.4, 3.5, 7 and 14 nmol/L, respectively, was added to the MMP-2 gold nanosensor to be reacted at temperature of 37° C. for 2 hours, and then the degree of the fluorescence was observed using the Kodak Image Station 4000MM Digital Imaging System.

[3] = system: Invasive squamous cell carcinoma (SCC7); test: Real-time imaging of cancerous tissue in cancer animal models; assay type: in vivo, C3H/HeN mouse; settings: 100 ul
Description: Invasive squamous cell carcinoma (SCC7) was injected into C3H/HeN mouse to create a cancer animal model. For the cancerous tissue with a size of more than 5 mm, the MMP-2 gold nanosensor was injected into the cancerous tissue, to thereafter estimate the possibility of imaging the cancer cell.
The invasive squamous cell carcinoma (SCC7) is known as a cancer cell expressing a great amount of MMP-2. The experiment was performed with respect to three animal test groups including a normal mouse having MMP-2 gold nanosensor (100 ul, 10 nM/mL) injected thereinto and a cancer mouse also having MMP-2 gold nanosensor (100 ul, 10 nM/mL) injected thereinto, and a cancer mouse having both MMP-2 gold sensor and MMP-2 inhibitor injected thereinto.

[4] = system: cancerous tissue overexpressing MMP-2 (SCC7); test: Fluorescence of gold nanosensor in removed cancerous tissue; assay type: in vivo, C3H/HeN mouse
Description: Depending on whether the MMP-2 inhibitor was injected into the cancerous tissue overexpressing MMP-2, the fluorescence of the MMP-2 gold nanosensor was observed.

[5] = biological target: MMP-13 (Homo sapiens, UniProt P45452); test: Fluorescence exhibition due to enzyme degradation of gold nanosensor by activated MMP-13 (96-well, Kodak Image Station); assay type: biochemical; settings: state (c), 37° C., 2 hours
Description: as §1, §2

Cy5.5-GPLGLFARC-Gold [MMP selective gold nanosensor]
size of nanoparticle (average) [1]: approximately 20 nm
fluorescence, MMP-2 added ([2]; MMP-2 added): bright fluorescence was exhibited
fluorescence versus MMP-2 concentration ([2]; activated MMP-2 at 0, 1.4, 3.5, 7 and 14 nmol/L): increased in proportion to the concentration of the added MMP-2 enzyme
fluorescence, MMP-2 not added ([2]; state (a), no MMP-2): fluorescence quenched
fluorescence in the reaction with MMP-2 inhibitor ([2]; state (e), MMP-2/MMP-2 inhibitor): no fluorescence is emitted
fluorescence in mouse with cancer cell ([3]; Au NP (SCC7 tumor), 10 nM/mL injected into cancerous tissue): emitted high fluorescence as time elapses
fluorescence in normal mouse ([3]; normal mouse without the cancer cell, 10 nM/mL injected): did not exhibit fluorescence
fluorescence in removed cancerous tissue treated with MMP-2 inhibitor ([4]; cancerous tissue (+inh)): remarkably low fluorescence
fluorescence in removed cancerous tissue not treated with MMP-2 inhibitor ([4]; cancerous tissue (−inh)): remarkably high fluorescence
fluorescence with respect to MMP-13 [5]: rarely exhibits fluorescence
